From US12459934B2, “Pesticidal compounds” (BASF SE, priority 2018, dated 2025)

Key:
Assay type in all cases: in vivo
[1] = test system: boll weevil (Anthonomus grandis); test: Boll weevil control, 96-well microtiter plate with insect diet and eggs; conditions: 120 h, sprayed onto insect diet, assessed after 5 days, read-out: mortality in comparison with untreated controls (egg and larval mortality)
Experimental: For evaluating control of boll weevil (Anthonomus grandis) the test unit consisted of 96-well-microtiter plates containing an insect diet and 5-10 A. grandis eggs.
The compounds were formulated using a solution containing 75% v/v water and 25% v/v DMSO. Different concentrations of formulated compounds were sprayed onto the insect diet at 5 μl, using a custom built micro atomizer, at two replications.
After application, microtiter plates were incubated at about 25±1° C. and about 75±5% relative humidity for 5 days. Egg and larval mortality was then visually assessed.

[2] = test system: Diamond Back Moth (Plutella xylostella); test: Diamond back moth, cabbage leaf dip test; conditions: foliar, 3rd instar larvae, 72 hours after treatment, read-out: mortality in comparison with untreated controls
Experimental: The active compound is dissolved at the desired concentration in a mixture of 1:1 (vol:vol) distilled water:acetone. Surfactant (Alkamuls® EL 620) is added at a rate of 0.1% (vol/vol). The test solution is prepared at the day of use.
Leaves of cabbage were dipped in test solution and air-dried. Treated leaves were placed in petri dish enlined with moist filter paper and inoculated with ten 3rd instar larvae. Mortality was recorded 72 hours after treatment. Feeding damages were also recorded using a scale of 0-100%.

[3] = test system: Southern Armyworm (Spodoptera eridania), 2nd Instar Larvae; test: Southern armyworm 2nd instar larvae on sprayed lima bean plants; conditions: 96 h, 4 days after treatment, read-out: mortality in comparison with untreated controls
Experimental: The active compounds were formulated in cyclohexanone as a 10,000 ppm solution supplied in tubes. The tubes were inserted into an automated electrostatic sprayer equipped with an atomizing nozzle and they served as stock solutions for which lower dilutions were made in 50% acetone:50% water (v/v). A nonionic surfactant (Kinetic®) was included in the solution at a volume of 0.01% (v/v).
Lima bean plants (variety Sieva) were grown 2 plants to a pot and selected for treatment at the 1st true leaf stage. Test solutions were sprayed onto the foliage by an automated electrostatic plant sprayer equipped with an atomizing spray nozzle. The plants were dried in the sprayer fume hood and then removed from the sprayer. Each pot was placed into perforated plastic bags with a zip closure. About 10 to 11 armyworm larvae were placed into the bag and the bags zipped closed. Test plants were maintained in a growth room at about 25° C. and about 20-40% relative humidity for 4 days, avoiding direct exposure to fluorescent light (24 hour photoperiod) to prevent trapping of heat inside the bags. Mortality and reduced feeding were assessed 4 days after treatment, compared to untreated control plants.

[4] = test system: tobacco budworm (Heliothis virescens); test: Tobacco budworm control, 96-well microtiter plate with insect diet and eggs; conditions: 120 h, sprayed onto insect diet, assessed after 5 days, read-out: mortality in comparison with untreated controls (egg and larval mortality)
Experimental: For evaluating control of tobacco budworm (Heliothis virescens) the test unit consisted of 96-well-microtiter plates containing an insect diet and 15-25 H. virescens eggs.
The compounds were formulated using a solution containing 75% v/v water and 25% v/v DMSO. Different concentrations of formulated compounds were sprayed onto the insect diet at 10 μl, using a custom built micro atomizer, at two replications.
After application, microtiter plates were incubated at about 28±1° C. and about 80±5% relative humidity for 5 days. Egg and larval mortality was then visually assessed.

[5] = test system: yellow fever mosquito (Aedes aegypti); test: whole plant or invertebrate; conditions: 48 h, freshly hatched larvae in tap water, assessed after 2 days, read-out: mortality in comparison with untreated controls (larval mortality)
Experimental: For evaluating control of yellow fever mosquito (Aedes aegypti) the test unit consisted of 96-well-microtiter plates containing 200 μl of tap water per well and 5-15 freshly hatched A. aegypti larvae. The active compounds were formulated using a solution containing 75% (v/v) water and 25% (v/v) DMSO. Different concentrations of formulated compounds or mixtures were sprayed onto the insect diet at 2.5 μl, using a custom built micro atomizer, at two replications.
After application, microtiter plates were incubated at 28+1° C., 80+5% RH for 2 days. Larval mortality was then visually assessed.

[6] = test system: Orchid Thrips (Dichromothrips corbetti); test: Orchid thrips, floral-immersion technique; conditions: dipped orchid petals, adult thrips, 72 hours after treatment, read-out: mortality in comparison with untreated controls
Experimental: Dichromothrips corbetti adults used for bioassay were obtained from a colony maintained continuously under laboratory conditions. For testing purposes, the test compound is diluted in a 1:1 mixture of acetone:water (vol:vol), plus Kinetic® HV at a rate of 0.01% v/v.
Thrips potency of each compound was evaluated by using a floral-immersion technique. All petals of individual, intact orchid flowers were dipped into treatment solution and allowed to dry in Petri dishes. Treated petals were placed into individual re-sealable plastic along with about 20 adult thrips. All test arenas were held under continuous light and a temperature of about 28° C. for duration of the assay. After 3 days, the numbers of live thrips were counted on each petal. The percent mortality was recorded 72 hours after treatment.

[7] = test system: Western Flower Thrips (Frankliniella occidentalis); test: Western flower thrips on leaf discs of sprayed cotton plants; conditions: foliar, 48 h, 2 DAT (days after treatment), read-out: mortality in comparison with untreated controls
Experimental: The active compounds were formulated by a Tecan liquid handler in 100% cyclohexanone as a 10,000 ppm solution supplied in tubes. The 10,000 ppm solution was serially diluted in 100% cyclohexanone to make interim solutions. These served as stock solutions for which final dilutions were made by the Tecan in 50% acetone:50% water (v/v) into 10 or 20 ml glass vials. A nonionic surfactant (Kinetic®) was included in the solution at a volume of 0.01% (v/v). The vials were then inserted into an automated electrostatic sprayer equipped with an atomizing nozzle for application to plants/insects.
Small (˜2″ in height) cotton plants are sprayed with test compounds at concentrations ranging from 300 to 0.01 ppm in acetone/water through the automated VPS. After drying, cotton leaves are removed and circular leaf discs (−1 cm diameter) are punched from the treated surface and transferred to clean 20 mL scintillation vials. Ten Western flower thrips (FRANOC) are aspirated into each scintillation vial. The vials with the leaf discs and thrips are kept in an upright incubator at 25° C. and 50% relative humidity with a 14:10 light:dark photoperiod. Each treatment is replicated twice.
Thrips mortality is assessed at 2 DAT (days after treatment), counting all thrips both dead and alive. [The average absolute mortality is calculated for each treatment.]

[8] = test system: Silverleaf Whitefly (Bemisia argentifolii) (Adults); test: Silverleaf whitefly adults on sprayed cotton plants; conditions: 72 h, 3 days after treatment, read-out: mortality in comparison with untreated controls
Excerpt: The active compounds were formulated in cyclohexanone as a 10,000 ppm solution supplied in tubes. The tubes were inserted into an automated electrostatic sprayer equipped with an atomizing nozzle and they served as stock solutions for which lower dilutions were made in 50% acetone:50% water (v/v). A non-ionic surfactant (Kinetic®) was included in the solution at a volume of 0.01% (v/v).
Cotton plants at the cotyledon stage (one plant per pot) were sprayed by an automated electrostatic plant sprayer equipped with an atomizing spray nozzle. The plants were dried in the sprayer fume hood and then removed from the sprayer. Each pot was placed into a plastic cup and about 10 to 12 whitefly adults (approximately 3-5 days old) were introduced. The insects were collected using an aspirator and a nontoxic Tygon® tubing connected to a barrier pipette tip. The tip, containing the collected insects, was then gently inserted into the soil containing the treated plant, allowing insects to crawl out of the tip to reach the foliage for feeding. Cups were covered with a reusable screened lid. Test plants were maintained in a growth room at about 25° C. and about 20-40% relative humidity for 3 days, avoiding direct exposure to fluorescent light (24-hour photoperiod) to prevent trapping of heat inside the cup. Mortality was assessed 3 days after treatment, compared to untreated control plants.

CC(C)c1ccccc1NC(=S)N/N=C/c1ccc2c(C(=O)Nc3ccc(OC(F)(F)F)cc3)nccc2c1 [Compound C-1, 6-[(E)-[(2-isopropylphenyl)carbamothioylhydrazono]methyl]-N-[4-(trifluoromethoxy)phenyl]isoquinoline-1-carboxamide]
> 75%: mortality at 800 ppm [1] | mortality at 300 ppm [2] | mortality at 300 ppm [3] | mortality at 800 ppm [4] | mortality at 800 ppm [5] | mortality at 300 ppm [6] | mortality at 300 ppm [7]

CC(C)c1ccccc1N1C(=O)CS/C1=N\N=C\c1ccc2c(C(=O)Nc3ccc(OC(F)(F)F)cc3)nccc2c1 [Compound C-2, 6-[(E)-[(Z)-[3-(2-isopropylphenyl)-4-oxo-thiazolidin-2-ylidene]hydrazono]methyl]-N-[4-(trifluoromethoxy)phenyl]isoquinoline-1-carboxamide]
> 75%: mortality at 800 ppm [1] | mortality at 300 ppm [2] | mortality at 300 ppm [8] | mortality at 300 ppm [3] | mortality at 800 ppm [4] | mortality at 800 ppm [5] | mortality at 300 ppm [6] | mortality at 300 ppm [7]
